Assay results published in the supplement of paper PMC10307832.

Assays:
Assay in all cases: relative viability (nuclei count vs DMSO), 5 days (fraction); higher = more cells survive
Crenolanib + Trametinib = compound: CC1(COc2ccc3c(c2)ncn3-c2ccc3cccc(N4CCC(N)CC4)c3n2)COC1 [Crenolanib] + CC(=O)Nc1cccc(-n2c(=O)n(C3CC3)c(=O)c3c(Nc4ccc(I)cc4F)n(C)c(=O)c(C)c32)c1 [Trametinib] (partner 0.02 µM)
Outline: (§1)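 Relative viability was taken as the ratio of nuclei in treated wells to nuclei in vehicle wells. Lung cancer cell lines in 1536-well plates received compounds by pin tool one day after seeding, either one drug alone or a fixed anchor-drug dose plus five library-drug doses (not always all listed) in √10 steps. Nuclei were counted on 4× images after 5 days of treatment, and values are medians of duplicate plates.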

Crenolanib + Pictilisib = compound: CC1(COc2ccc3c(c2)ncn3-c2ccc3cccc(N4CCC(N)CC4)c3n2)COC1 [Crenolanib] + CS(=O)(=O)N1CCN(Cc2cc3nc(-c4cccc5[nH]ncc45)nc(N4CCOCC4)c3s2)CC1 [Pictilisib] (partner 1 µM)
Outline: as §1

Crenolanib + AZD7762 = compound: CC1(COc2ccc3c(c2)ncn3-c2ccc3cccc(N4CCC(N)CC4)c3n2)COC1 [Crenolanib] + NC(=O)Nc1cc(-c2cccc(F)c2)sc1C(=O)N[C@H]1CCCNC1 [AZD7762] (partner 0.2 µM)
Outline: as §1

Tivantinib + Phenformin = compound: O=C1NC(=O)[C@@H](c2cn3c4c(cccc24)CCC3)[C@@H]1c1c[nH]c2ccccc12 [Tivantinib] + N=C(N)NC(=N)NCCc1ccccc1 [Phenformin] (partner 250 µM)
Outline: as §1

Cell Line	relative viability (Crenolanib + Trametinib; first compound 0.01 µM)	relative viability (Crenolanib + Trametinib; first compound 0.03162 µM)	relative viability (Crenolanib + Trametinib; first compound 0.1 µM)	relative viability (Crenolanib + Trametinib; first compound 0.3162 µM)	relative viability (Crenolanib + Trametinib; first compound 1 µM)	relative viability (Crenolanib + Pictilisib; first compound 0.01 µM)	relative viability (Crenolanib + Pictilisib; first compound 0.03162 µM)	relative viability (Crenolanib + Pictilisib; first compound 0.1 µM)	relative viability (Crenolanib + Pictilisib; first compound 0.3162 µM)	relative viability (Crenolanib + Pictilisib; first compound 1 µM)	relative viability (Crenolanib + AZD7762; first compound 0.01 µM)	relative viability (Crenolanib + AZD7762; first compound 0.03162 µM)	relative viability (Crenolanib + AZD7762; first compound 0.1 µM)	relative viability (Crenolanib + AZD7762; first compound 0.3162 µM)	relative viability (Crenolanib + AZD7762; first compound 1 µM)	relative viability (Tivantinib + Phenformin; first compound 0.01 µM)	relative viability (Tivantinib + Phenformin; first compound 0.03162 µM)	relative viability (Tivantinib + Phenformin; first compound 0.1 µM)	relative viability (Tivantinib + Phenformin; first compound 0.3162 µM)
NCI-H650	1.01	1.01	0.976	1.05	0.992	0.9	0.806	0.901	0.801	0.83	1.06	0.975	1.01	0.864	0.936	0.47	0.387	0.448	0.479
NCI-H1915	0.29	0.324	0.289	0.304	0.275	0.871	0.957	0.932	0.915	0.586	0.745	0.74	0.688	0.793	0.585	0.362	0.354	0.367	0.378
ChaGo-K-1	0.877	0.895	0.868	0.916	0.846	0.419	0.627	0.736	0.562	0.7	0.876	0.863	0.866	0.933	0.891	0.586	0.442	0.483	0.542
NCI-H1355	0.488	0.381	0.405	0.547	0.37	0.459	0.48	0.436	0.402	0.389	0.729	0.89	0.705	0.732	0.653	0.474	0.475	0.439	0.436
NCI-H1651	0.864	0.835	0.783	0.825	0.847	0.568	0.511	0.52	0.548	0.502	0.49	0.399	0.434	0.472	0.558	0.348	0.287	0.318	0.376
LU99A	0.527	0.499	0.514	0.618	0.541	0.37	0.324	0.325	0.393	0.287	0.42	0.419	0.414	0.467	0.401	0.852	0.805	0.804	0.942
NCI-H3122	0.233	0.21	0.224	0.23	0.318	0.549	0.497	0.561	0.732	0.738	1.02	0.958	1.02	1.04	0.996	0.369	0.394	0.359	0.361
LOU-NH91	0.826	0.793	0.774	0.879	0.788	0.595	0.525	0.473	0.56	0.53	0.765	0.762	0.782	0.817	0.697	0.689	0.715	0.702	0.615
